In US10538497B2, “Compounds as indoleamine 2,3-dioxygenase inhibitors” (Merck Sharp & Dohme Corp., priority 2015, dated 2020):

Tests used:
[1] = target: T1, IDO1 (Homo sapiens (Human), UniProt P14902); assay: IDO1 Cellular Assay in Hela Cells Stimulated with IFNγ; assay type: cell-based; conditions: Hela cells stimulated with IFNγ 100 ng/mL; read-out: IDO1 HELA Cell Assay, IC50
Description: IDO1 Cellular Assay in Hela Cells Stimulated with IFNγ
Hela cells were cultured in complete Hela culture medium (90% EMEM, 10% heat-inactivated fetal bovine serum) and expanded to about 1×10^9 cells. The cells were then collected and frozen down at 10×10^6 cells/vial in 1 mL frozen medium (90% complete Hela culture medium, 10% DMSO)
Frozen Hela cells were thawed and transferred into Hela assay medium (99% complete Hela culture medium, 1% Pen/Strep) with 20 mL medium/vial of cells. The cells were spun down at 250 g in a table top centrifuge for 5 min and suspended in same volume of Hela assay medium. The cells were then counted and adjusted to a density of 2×10^5 cells/ml in Hela assay medium. Sterile L-tryptophan were added to the cells with final concentration of 300 uM L-tryptophan. A small aliquot (2 mL/plate) of Hela cells were set aside and were not treated with IFNγ, to serve as the Max-E control. The rest of Hela cells were added with sterile IFNγ (Cat #285-IF, R & D systems) with a final concentration of 100 ng/mL.
(§1) Hela cells with and without IFNγ were dispensed to the respective wells of 384-well assay plates containing the compounds. The plates were incubated for about 48 hours at a 37° C., 5% CO2 incubator. […] The plates were centrifuged for 1 min at 200×g. The resulting fluorescence was measured in a Spectramax plate reader (Molecular Devices) with a 400 nm excitation filter and a 510 nm emission filter.

[2] = target: T1, IDO1; assay: IDO1 Cellular Assay in Frozen HEK293 Cells Transiently Transfected with Human IDO1; assay type: cell-based; conditions: HEK293 cells transiently transfected with human IDO1; read-out: IDO1 HEK293 Cell Assay, IC50
Description: IDO1 Cellular Assay in Frozen HEK293 Cells Transiently Transfected with Human IDO1
HEK293 cells were cultured in complete HEK293 culture medium (90% DMEM, 10% heat-inactivated fetal bovine serum). When reaching sub-confluent, the cells were trypsinized and neutralized with complete medium. […] Flag-IDO1 plasmid was added to the cell suspension at a concentration of 100 μg/mL. The cell-plasmid solutions were transferred to the OC-400 processing assembly (Maxcyte), 400 l/unit and the units were placed in a Maxcyte instrument to carry out flow electroporation for transfection. The cells were then transferred to a sterile 24-well cell culture plate to recover for 20-30 min at 37° C. in an incubator with 5% CO2.
Frozen HEK293/IDO1 and HEK293 WT cells were thawed and transferred into HEK293 assay medium (99% complete HEK293 culture medium, 1% Pen/Strep) with 20 mL medium/vial of cells. The cells were spun down at 250 g in a table top centrifuge for 5 min and suspended in same volume of HEK293 assay medium. […] Sterile L-tryptophan were added to the cells with final concentration of 300 μM.
as §1, with “HEK293/IDO1 and HEK293 WT” for “Hela”, “cells” for “cells with and without IFNγ”, “28-30 h” for “48 hours”

[3] = target: T1, IDO1; assay: IDO1 Enzyme Assay; conditions: HIS-tagged recombinant IDO1, 40 nM
[4] = read-out: IDO1 Enzyme Assay, IC50

T1 sequence (P14902 whole entry): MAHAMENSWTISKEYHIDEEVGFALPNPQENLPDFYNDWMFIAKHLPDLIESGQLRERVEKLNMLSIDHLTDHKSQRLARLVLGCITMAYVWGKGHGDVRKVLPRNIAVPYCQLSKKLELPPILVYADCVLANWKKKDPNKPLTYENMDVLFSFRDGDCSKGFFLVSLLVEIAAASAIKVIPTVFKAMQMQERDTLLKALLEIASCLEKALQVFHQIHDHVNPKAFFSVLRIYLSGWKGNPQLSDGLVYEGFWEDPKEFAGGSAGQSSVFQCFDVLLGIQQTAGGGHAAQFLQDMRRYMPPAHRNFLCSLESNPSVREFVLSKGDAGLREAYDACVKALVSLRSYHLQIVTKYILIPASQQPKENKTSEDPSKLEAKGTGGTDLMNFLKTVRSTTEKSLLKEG

Compound | IC50 [1] [nM] | IC50 [2] [nM] | IC50 ([3]; IDO1 Enzyme Assay, IC50, nM) [nM] | IC50 [3, 4] [nM]
OCC(O)CSc1nonc1/C(=N/O)Nc1ccc(F)c(Br)c1 (single isomer, unassigned) [Example 63, N-(3-bromo-4-fluorophenyl)-4-[(2,3-dihydroxypropyl)sulfanyl]-N′-hydroxy-1,2,5-oxadiazole-3-carboximidamide] | 37.5 | 53.2 | 46.1 | 
OCC(O)CSc1nonc1/C(=N/O)Nc1ccc(F)c(Br)c1 (single isomer, unassigned) [Example 64, N-(3-bromo-4-fluorophenyl)-4-[(2,3-dihydroxypropyl)sulfanyl]-N′-hydroxy-1,2,5-oxadiazole-3-carboximidamide] | 44.1 | 75.9 | 49.1 | 
NCCSc1nonc1/C(=N/O)Nc1ccc(F)c(Br)c1 [Example 2, (Z)-2-((4-(N-(3-Bromo-4-fluorophenyl)-N′-hydroxycarbamimidoyl)-1,2,5-oxadiazol-3-yl)thio)ethan-1-aminium chloride] | 77.5 | 216 |  | 48.1
NS(=O)(=O)NCCSc1nonc1/C(=N/O)Nc1ccc(F)c(Br)c1 [Example 3, (Z)—N-(3-Bromo-4-fluorophenyl)-N′-hydroxy-4-((2-(sulfamoylamino)ethyl)thio)-1,2,5-oxadiazole-3-carboximidamide] | 72.4 | 56.9 |  | 79.5
O=P(O)(O)CCSc1nonc1/C(=N/O)Nc1ccc(F)c(Br)c1 [Example 8, (Z)-(2-((4-(N-(3-Bromo-4-fluorophenyl)-N′-hydroxycarbamimidoyl)-1,2,5-oxadiazol-3-yl)thio)ethyl)phosphonic acid] | 7950 | 6360 |  | 107
CC(C)OC(=O)OCOP(=O)(O)CCSc1nonc1/C(=N/O)Nc1ccc(F)c(Br)c1 [Example 9, (Z)-(((2-((4-(N-(3-bromo-4-fluorophenyl)-N′-hydroxycarbamimidoyl)-1,2,5-oxadiazol-3-yl)thio)ethyl)(hydroxy)phosphoryl)oxy)methyl isopropyl carbonate] | 5060 | 5120 |  | 197
CC(C)OC(=O)OCOP(=O)(CCSc1nonc1/C(=N/O)Nc1ccc(F)c(Br)c1)OCOC(=O)OC(C)C [Example 10, (Z)-(((2-((4-(N-(3-bromo-4-fluorophenyl)-N′-hydroxycarbamimidoyl)-1,2,5-oxadiazol-3-yl)thio)ethyl)phosphoryl)bis(oxy))bis(methylene) diisopropyl bis(carbonate)] | 4160 | > 10000 |  | 136
CC(=O)NCCSc1nonc1/C(=N/O)Nc1ccc(F)c(Br)c1 [Example 11, (Z)—N-(2-((4-(N-(3-Bromo-4-fluorophenyl)-N′-hydroxycarbamimidoyl)-1,2,5-oxadiazol-3-yl)thio)ethyl)acetamide] | 9.3 | 22.2 |  | 27.7
CCOC(=O)CCSc1nonc1/C(=N/O)Nc1ccc(F)c(Br)c1 [Example 13, Ethyl (Z)-3-((4-(N-(3-bromo-4-fluorophenyl)-N′-hydroxycarbamimidoyl)-1,2,5-oxadiazol-3-yl)thio)propanoate] | 6120 | 4490 |  | 86.1
O=C(O)CSc1nonc1/C(=N/O)Nc1ccc(F)c(Br)c1 [Example 15, (Z)-2-((4-(N-(3-bromo-4-fluorophenyl)-N′-hydroxycarbamimidoyl)-1,2,5-oxadiazol-3-yl)thio)acetic acid] | > 10000 | > 10000 |  | 105
CC(O)CSc1nonc1/C(=N/O)Nc1ccc(F)c(Br)c1 (stereo not shown) [Example 18, (Z)-N-(3-bromo-4-fluorophenyl)-N′-hydroxy-4-((2-hydroxypropyl)thio)-1,2,5-oxadiazole-3-carboximidamide] | 87.9 | 64.2 |  | 58.4
OCCCSc1nonc1/C(=N/O)Nc1ccc(F)c(Br)c1 [Example 19, (Z)-N-(3-bromo-4-fluorophenyl)-N′-hydroxy-4-((3-hydroxypropyl)thio)-1,2,5-oxadiazole-3-carboximidamide] | 39.7 | 39.7 |  | 71.9
OCCCCSc1nonc1/C(=N/O)Nc1ccc(F)c(Br)c1 [Example 20, (Z)-N-(3-bromo-4-fluorophenyl)-N′-hydroxy-4-((4-hydroxybutyl)thio)-1,2,5-oxadiazole-3-carboximidamide] | 65.3 | 56 |  | 67.7
COC(=O)C1(Sc2nonc2/C(=N/O)Nc2ccc(F)c(Br)c2)CCC1 [Example 21, Methyl (Z)-1-((4-(N-(3-bromo-4-fluorophenyl)-N′-hydroxycarbamimidoyl)-1,2,5-oxadiazol-3-yl)thio)cyclobutane-1-carboxylate] | 242 | 524 |  | 
CCCSc1nonc1/C(=N/O)Nc1ccc(F)c(Br)c1 [Example 23, (Z)-N-(3-bromo-4-fluorophenyl)-N′-hydroxy-4-(propylthio)-1,2,5-oxadiazole-3-carboximidamide] | 154 | 263 |  | 187
CCSc1nonc1/C(=N/O)Nc1ccc(F)c(Br)c1 [Example 24, (Z)-N-(3-bromo-4-fluorophenyl)-4-(ethylthio)-N′-hydroxy-1,2,5-oxadiazole-3-carboximidamide] | 62.8 | 133 |  | 154
O/N=C(\Nc1ccc(F)c(Br)c1)c1nonc1SCC1CNC1 [Example 25, (Z)-4-((azetidin-3-ylmethyl)thio)-N-(3-bromo-4-fluorophenyl)-N′-hydroxy-1,2,5-oxadiazole-3-carboximidamide] | 150 | 152 |  | 92.2
O/N=C(\Nc1ccc(F)c(Br)c1)c1nonc1SC1CNC1 [Example 26, (Z)-4-(azetidin-3-ylthio)-N-(3-bromo-4-fluorophenyl)-N′-hydroxy-1,2,5-oxadiazole-3-carboximidamide] | 104 | 174 |  | 74.8
O=c1[nH]nc(CSc2nonc2/C(=N/O)Nc2ccc(F)c(Br)c2)[nH]1 [Example 34, N-(3-bromo-4-fluorophenyl)-N′-hydroxy-4-(((5-oxo-4,5-dihydro-1H-1,2,4-triazol-3-yl)methyl)thio)-1,2,5-oxadiazole-3-carboximidamide] | 40.2 | 188 |  | 64.9
CNC(=O)C1(CSc2nonc2/C(=N/O)Nc2ccc(F)c(Br)c2)CC1 [Example 69, 1-[({4-[N-(3-bromo-4-fluorophenyl)-N′-hydroxycarbamimidoyl]-1,2,5-oxadiazol-3-yl}sulfanyl)methyl]-N-methylcyclopropanecarboxamide] | 90.8 | 103 |  | 
CC(=O)N[C@H](C)CSc1nonc1/C(=N/O)Nc1ccc(F)c(C#N)c1 [Example 179, N-[(1R)-2-({4-[N-(3-cyano-4-fluorophenyl)-N′-hydroxycarbamimidoyl]-1,2,5-oxadiazol-3-yl}sulfanyl)-1-methylethyl]acetamide] |  | 686 |  | 218
O=c1c(NCCSc2nsnc2/C(=N/O)Nc2ccc(F)c(Br)c2)c(NCC2CC2)c1=O [Example 210, N-(3-bromo-4-fluorophenyl)-4-{[2-({2-[(cyclopropylmethyl)amino]-3,4-dioxocyclobut-1-en-1-yl}amino)ethyl]sulfanyl}-N′-hydroxy-1,2,5-thiadiazole-3-carboximidamide] |  | 1410 |  | 166
O=c1c(NCCSc2nsnc2/C(=N/O)Nc2ccc(F)c(Br)c2)c(NC2CC2)c1=O [Example 211, N-(3-bromo-4-fluorophenyl)-4-[(2-{[2-(cyclopropylamino)-3,4-dioxocyclobut-1-en-1-yl]amino}ethyl)sulfanyl]-N′-hydroxy-1,2,5-thiadiazole-3-carboximidamide] |  | 1320 |  | 297
